Data reported in patent US20250288704A1, “CXCR4-LIGANDS FOR DIAGNOSTIC AND THERAPEUTIC USE AND PRECURSORS THEREOF” (priority 2021, published 2025).
Read-outs that look alike come from different tables or passages of the source. Positions of bridges follow the written chain, without caps; N, C: chain ends. Non-standard residues stand in square brackets, D forms with d. Residues, ends and D or L forms follow the SMILES beside them. Groups on a side chain read outwards from the residue. Chains are numbered I, II in the order given. *: point of attachment. X9 = NCCNCC(CNCCN)C(=O)NC[C@@H](NC(=O)CC[C@@H](NC(=O)N[C@H](CCC(=O)O)C(=O)O)C(=O)O)C(=O)*; X2 = OC[C@H]1O[C@@H](O[C@H]2[C@H](O)[C@@H](O)[C@H](*)O[C@@H]2CO)[C@H](O)[C@@H](O)[C@H]1O; X8 = NCCNCC(CNCCN)C(=O)NC[C@@H](NC(=O)CCC(NC(=O)N[C@H](CCC(=O)O)C(=O)O)C(=O)O)C(=O)*; X5 = CC(C)(C)[Si](F)(c1ccc(C[N+](C)(C)CC(=O)*)cc1)C(C)(C)C; DOTA = O=C(O)CN1CCN(CC(=O)O)CCN(CC(=O)*)CCN(CC(=O)O)CC1; 2Nal = N[C@@H](Cc1ccc2ccccc2c1)C(=O)O; dNMeOrn = CN[C@H](CCCN)C(=O)O; d(hCys) = N[C@H](CCS)C(=O)O; Mercaptoacetyl = O=C(CS)*; X4 = OCC1OC(*)C(O)C(O)C1O; 4Abz = Nc1ccc(C(=O)O)cc1; dDap = NC[C@@H](N)C(=O)O; Ahx = NCCCCCC(=O)O

How the values were obtained:
[1] = test system: CXCR4-expressing Chem_1 cells; experiment: Determination of internalization, dual tracer with 125I-Fc-131; assay type: cell-based; details: for Cell-bound [%] / Internalized [%]: of total cellular activity
Summary of the method: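 Chem_1 cells grown in DMEM-F12 with 10% FBS at 37 °C; wells (n=3 per time point) received medium or AMD3100 (1 mM stock) to block receptors. Unbound, surface-bound and NaOH-lysed internalized fractions were γ-counted; data corrected for non-specific internalization and referred to standard ligand specific internalization.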

[2] = Octanol/PBS partition coefficient (logD7.4); assay type: physicochemical; details: n-octanol/PBS pH 7.4, radiolabeled compound
Method: The tubes were vortexed at maximum speed for 3 min to ensure equilibrium before centrifugation at 15.000×g for 5 min on a Biofuge 15 from Heraeus Holding GmbH (Osterode, Germany). An aliquot of 100 μL of each fraction was measured in the γ-counter and the log D7.4 calculated as follows: […]

CXCR4 [3] = biological target: T1, CXCR4 (Homo sapiens, UniProt P61073); experiment: Determination of inverse IC50 (invIC50): radiolabeled peptide displaced by Fc-131 on Jurkat cells
T1 sequence (P61073 whole entry): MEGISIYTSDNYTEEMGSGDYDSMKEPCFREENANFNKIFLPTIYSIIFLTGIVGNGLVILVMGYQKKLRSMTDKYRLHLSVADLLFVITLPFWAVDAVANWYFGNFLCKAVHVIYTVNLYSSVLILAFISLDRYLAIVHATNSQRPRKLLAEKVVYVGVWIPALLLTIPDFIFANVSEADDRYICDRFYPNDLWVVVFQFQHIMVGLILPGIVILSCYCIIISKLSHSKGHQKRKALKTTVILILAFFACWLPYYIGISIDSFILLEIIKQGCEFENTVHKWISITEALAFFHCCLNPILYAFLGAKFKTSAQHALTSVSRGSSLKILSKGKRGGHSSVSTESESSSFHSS
Method: For in vitro experiments, cells were counted in a hemocytometer using trypan blue as contrast agent. The cell suspension was centrifuged, and the pellet resuspended in HBSS (+1 wt % BSA) to a concentration of 2 mio cells/mL. 8×3 polystyrene tubes were loaded with 25 μL of the standard ligand ^125I-Fc-131 (see 4.1, 1.00 nM in HBSS) and 25 μL of the ligand to investigate in the respective concentration (10^−4-10^−10 M, n=3 for each concentration). 200 μL of cell suspension (400.000 cells per well) were added to obtain a final peptide concentration range of 10^−5-10^−11 M. The tubes were cooled for 2 h at 8° C. to prevent internalization. The experiment was stopped by removal of the supernatant. 200 μL HBSS were added onto the cells, the suspension centrifuged, and the supernatant pooled with the respective first fractions. This step was repeated once more before the tubes containing the supernatants and the ones containing the cell pellets were subjected to activity measurement in the γ-counter.
For the determination of inverse IC50 (invIC50) values the protocol for the determination of regular IC50 values was resumed with minor changes. The peptide under investigation was radioactively labeled and a stock solution was prepared in HBSS (2.00 nM). A concentration gradient of the standard ligand Fc-131 was prepared in HBSS (10^−4-10^−10 M). A cell tube was then containing 25 μL of the radioactive peptide solution, 25 μL of the respective Fc-131 solution and 200 μL cell suspension (400.000 cells). The experiment was conducted as described above.

[4] = Biodistribution in Daudi xenograft bearing CB-17 SCID mice; assay type: in vivo; details: mouse, iv, total radioactivity, 1 h p.i., CB-17 SCID female mice
CXCR4 [5] = biological target: T1, CXCR4; experiment: Determination of IC50: competition with 125I-Fc-131 on CXCR4-positive Jurkat cells; assay type: binding; set-up: CXCR4-positive Jurkat T lymphocyte cells were grown in Gibco's RPMI 1640 GlutaMAX medium; endogenous in cells; host or cells: Jurkat T lymphocyte cells (whole cells in suspension, 400.000 per tube);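 further: test compound at 10^−5 to 10^−11 M competed for 2 h at 8 °C with the radioligand on 400,000 cells per well, bound versus free activity measured by γ-counting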
Method: For in vitro experiments, cells were counted in a hemocytometer using trypan blue as contrast agent. The cell suspension was centrifuged, and the pellet resuspended in HBSS (+1 wt % BSA) to a concentration of 2 mio cells/mL. […] 200 μL of cell suspension (400.000 cells per well) were added to obtain a final peptide concentration range of 10^−5-10^−11 M. The tubes were cooled for 2 h at 8° C. to prevent internalization. The experiment was stopped by removal of the supernatant. 200 μL HBSS were added onto the cells, the suspension centrifuged, and the supernatant pooled with the respective first fractions. This step was repeated once more before the tubes containing the supernatants and the ones containing the cell pellets were subjected to activity measurement in the γ-counter.

[6] = test system: Jurkat tumor-bearing CB-17 SCID mice; experiment: Biodistribution in Jurkat tumor-bearing CB-17 SCID mice; assay type: in vivo; details: 1 h p.i., 1 mouse
Summary of the method: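 CB17-SCID mice bore subcutaneous Jurkat xenografts (2-3×10^7 cells in Matrigel, shoulder), used at 5-8 mm tumor diameter. About 0.5-20 MBq (0.02-0.20 nmol) of 125I-, 177Lu-, 99mTc-, 18F- or 68Ga-labeled ligand given by tail vein; organs weighed and γ-counted after set times.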

[7] = 2,000 pmol cold substance co-injected
[8] = co-injection of 1,000 μmol (so in the source) cold substance vs 36 pmol

Row | Molecule | Internalized in relation to 125I-Fc-131 [%] ([1]; 30 min) | Cell-bound [%] ([1]; 30 min) | Internalized [%] ([1]; 30 min) | Internalization [% Fc-131] ([1]; 90 min) | Internalized in relation to 125I-Fc-131 [%] ([1]; 90 min) | Cell-bound [%] ([1]; 90 min) | Internalized [%] ([1]; 90 min) | logD7.4 [2] | IC50 (CXCR4 [3]) [nM] | further results
1 | C[C@@H](NC(=O)[C@@H](CCCNC(=N)N)NC(=O)[C@@H](CN)NC(=O)CCCCCNC(=O)[C@@H](CNC(=O)C(CNCCN)CNCCN)NC(=O)CC[C@@H](NC(=O)N[C@H](CCC(=O)O)C(=O)O)C(=O)O)C(=O)Nc1ccc(C(=O)NCCC[C@@H]2C(=O)N[C@@H](CCCNC(=N)N)C(=O)N[C@@H](Cc3ccc4ccccc4c3)C(=O)NCC(=O)N[C@H](Cc3ccc(O)cc3)C(=O)N2C)cc1 [Tc-CXCR4-16] (cyclo([2Nal]G[dY][dNMeOrn]([4Abz-dA-dR-dDap-Ahx-X9])R)) | 230 ± 10.7 | 3.36 ± 0.45 | 15.0 ± 0.31 | 284 (90 min) % Fc-131 | 284 ± 10.4 | 3.53 ± 0.21 | 19.8 ± 0.15 | −2.70 ± 0.04 (8) | 6.08 ± 1.03 | 
2 | C[C@@H](NC(=O)[C@@H](CCCNC(=N)N)NC(=O)[C@@H](CN)NC(=O)[C@@H](CNC(=O)C(CNCCN)CNCCN)NC(=O)CCC(NC(=O)N[C@H](CCC(=O)O)C(=O)O)C(=O)O)C(=O)Nc1ccc(C(=O)NCCC[C@@H]2C(=O)N[C@@H](CCCNC(=N)N)C(=O)N[C@@H](Cc3ccc4ccccc4c3)C(=O)NCC(=O)N[C@H](Cc3ccc(O)cc3)C(=O)N2C)cc1 (stereo partly drawn) [Tc-CXCR4-15] (cyclo([2Nal]G[dY][dNMeOrn]([4Abz-dA-dR-dDap-X8])R)) | 214 ± 11.7 | 4.35 ± 0.16 | 12.6 ± 0.34 | 232 (90 min) % Fc-131 | 232 ± 15.3 | 3.42 ± 0.27 | 17.9 ± 1.06 | −3.60 ± 0.02 (8) | 3.69 ± 1.32 | 
3 | CPCR4-HYNIC [reference compound] |  |  |  | 29 (90 min) % Fc-131 |  |  |  | −1.84 ± 0.01 (8) |  | invIC50 [nM] (CXCR4 [3]; radiolabeled compound displaced by Fc-131, Jurkat cells): No
4 | C[C@@H](NC(=O)[C@@H](CCCNC(=N)N)NC(=O)[C@@H](CN)NC(=O)[C@@H](CO)NC(=O)[C@@H](CCSC1OC(CO)C(O)C(O)C1O)NC(=O)[C@@H](CCSC1OC(CO)C(O)C(O)C1O)NC(=O)CS)C(=O)Nc1ccc(C(=O)NCCC[C@@H]2C(=O)N[C@@H](CCCNC(=N)N)C(=O)N[C@@H](Cc3ccc4ccccc4c3)C(=O)NCC(=O)N[C@H](Cc3ccc(O)cc3)C(=O)N2C)cc1 (stereo partly drawn) [Tc-CXCR4-10] (I: Mercaptoacetyl-[d(hCys)](X4)[d(hCys)](X4)[dS][dDap][dR][dA][4Abz] / II: cyclo([2Nal]G[dY][dNMeOrn]R); amide I:C-II:4) | 226 ± 10.2 | 6.75 ± 0.76 | 18.8± 0.66 | 267 (90 min) % Fc-131 | 267 ± 8.94 | 6.06 ± 0.34 | 31.7 ± 0.52 | −2.32 ± 0.02 (7) | 5.13 ± 1.81 | 
5 | C[C@@H](NC(=O)[C@@H](CCCNC(=N)N)NC(=O)[C@@H](CO)NC(=O)[C@@H](CO)NC(=O)[C@@H](CO)NC(=O)CS)C(=O)Nc1ccc(C(=O)NCCC[C@@H]2C(=O)N[C@@H](CCCNC(=N)N)C(=O)N[C@@H](Cc3ccc4ccccc4c3)C(=O)NCC(=O)N[C@H](Cc3ccc(O)cc3)C(=O)N2C)cc1 [Tc-CXCR4-1] (I: Mercaptoacetyl-[dS][dS][dS][dR][dA][4Abz] / II: cyclo([dY][dNMeOrn]R[2Nal]G); amide I:C-II:2) |  |  |  |  |  |  |  |  |  | tissue uptake at 1 h ([4]; Blood, read-out: % iD/g Blood): 0.83 %ID/g; tissue uptake at 1 h ([4]; Heart, read-out: % iD/g Heart): 0.54 %ID/g; tissue uptake at 1 h ([4]; Intestine, read-out: % iD/g Intestine): 1.12 %ID/g; tissue uptake at 1 h ([4]; Kidney, read-out: % iD/g Kidney): 4 %ID/g; tissue uptake at 1 h ([4]; Liver, read-out: % iD/g Liver): 3.54 %ID/g; tissue uptake at 1 h ([4]; Lung, read-out: % iD/g Lung): 1.79 %ID/g; tissue uptake at 1 h ([4]; Muscle, read-out: % iD/g Muscle): 0.16 %ID/g; tissue uptake at 1 h ([4]; Pancreas, read-out: % iD/g Pancreas): 0.22 %ID/g; tissue uptake at 1 h ([4]; Spleen, read-out: % iD/g Spleen): 1.09 %ID/g; tissue uptake at 1 h ([4]; Stomach, read-out: % iD/g Stomach): 0.86 %ID/g; tissue uptake at 1 h ([4]; Tumor, read-out: % iD/g Tumor): 1.41 %ID/g; IC50 (CXCR4 [5]): 20.6 ± 7.52 nM
6 | C[C@@H](NC(=O)[C@@H](CCCNC(=N)N)NC(=O)[C@@H](CN)NC(=O)CCCCCNC(=O)[C@@H](CNC(=O)CN1CCN(CC(=O)O)CCN(CC(=O)O)CCN(CC(=O)O)CC1)NC(=O)[C@@H](CCS[C@@H]1O[C@H](CO)[C@@H](O[C@@H]2O[C@H](CO)[C@H](O)[C@H](O)[C@H]2O)[C@H](O)[C@H]1O)NC(=O)C[N+](C)(C)Cc1ccc([Si](F)(C(C)(C)C)C(C)(C)C)cc1)C(=O)Nc1ccc(C(=O)NCCC[C@@H]2C(=O)N[C@@H](CCCNC(=N)N)C(=O)N[C@@H](Cc3ccc4ccccc4c3)C(=O)NCC(=O)N[C@H](Cc3ccc(O)cc3)C(=O)N2C)cc1 [CXCR4-SiFA-7 [Ga]] (I: X5-[d(hCys)](X2)[dDap](DOTA)[Ahx][dDap][dR][dA][4Abz] / II: cyclo([dY][dNMeOrn]R[2Nal]G); amide I:C-II:2) | 837 ± 51.4 | 0.11 ± 0.29 | 38.9 ± 1.09 | 1029 % Fc-131 | 1029 ± 66.7 | 0 ± 0.41 | 50.0 ± 1.12 | −1.95 ± 0.05 (8) |  | uptake in liver compared to biodistribution with 36 pmol [6, 7]: 70%; uptake in spleen compared to biodistribution with 36 pmol [6, 7]: 61%; uptake in tumor compared to biodistribution with 36 pmol [6, 7]: 40%; Blood activity level raised by [6, 8]: 310%; tumor uptake compared to un-supplemented injection [6, 8]: 180%; uptake in liver compared to un-supplemented injection [6, 8]: 121%; uptake in muscle compared to un-supplemented injection [6, 8]: 226%; uptake in pancreas compared to un-supplemented injection [6, 8]: 196%; uptake in spleen compared to un-supplemented injection [6, 8]: 114%; IC50 (CXCR4 [5]; unlabeled or cold (natGa/natLu) compound vs 125I-Fc-131, Jurkat cells): 6.23 ± 1.57 nM
